Key:
[1] = test system: normal NK cells expanded with K562-aAPC; test: percent inhibition of viability; higher = more inhibition; settings: 72 h, IL-2 2.5 ng/mL
Experimental: (§1)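 Drug sensitivity and resistance testing on K562-aAPC-expanded normal NK cells: 5 concentrations (10-fold steps over a 10,000-fold range), 72 h at 37 °C, viability by CellTiter-Glo normalised to DMSO and benzethonium chloride controls; DSS from the fitted curve.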

[2] = test system: DERL-7 (IL-2 2.5 ng/mL); test: drug sensitivity score (DSS) (DSS units); higher = more sensitive; extreme values may be limits of the assay; settings: 72 h
[3] = test system: IMC-1 (IL-2 20 ng/mL); test: as above; settings: 72 h
[4] = test system: KAI3 (IL-2 2.5 ng/mL); test: as above; settings: 72 h
[5] = test system: SNK-6 (IL-2 2.5 ng/mL); test: as above; settings: 72 h
[6] = test system: normal primary NK cells, pool 2 (3 donors) (IL-2 2.5 ng/mL); test: as above; settings: 72 h
[7] = test system: NK-92 (IL-2 2.5 ng/mL); test: as above; settings: 72 h
[8] = test system: YT (IL-2 2.5 ng/mL); test: as above; settings: 72 h
[9] = test system: normal primary NK cells, pool 1 (3 donors) (IL-2 2.5 ng/mL); test: as above; settings: 72 h
[10] = test system: NKL (IL-2 2.5 ng/mL); test: as above; settings: 72 h
[11] = test system: NK-YS (IL-2 2.5 ng/mL); test: as above; settings: 72 h
[12] = test system: normal primary NK cells, pool 3 (3 donors) (IL-2 2.5 ng/mL); test: as above; settings: 72 h
[13] = test system: normal primary NK cells, pool 1 (3 donors), resting (IL-2 0 ng/mL); test: as above; settings: 72 h
[14] = test system: KHYG-1 (IL-2 2.5 ng/mL); test: as above; settings: 72 h
[15] = test system: DERL-7 (IL-2 2.5 ng/mL); test: percent inhibition of viability; higher = more inhibition; settings: 72 h
[16] = test system: IMC-1 (IL-2 20 ng/mL); test: as above; settings: 72 h
[17] = test system: KAI3 (IL-2 2.5 ng/mL); test: as above; settings: 72 h
[18] = test system: SNK-6 (IL-2 2.5 ng/mL); test: as above; settings: 72 h
[19] = test system: normal primary NK cells, pool 2 (3 donors) (IL-2 2.5 ng/mL); test: as above; settings: 72 h
[20] = test system: NK-92 (IL-2 2.5 ng/mL); test: as above; settings: 72 h
[21] = test system: YT (IL-2 2.5 ng/mL); test: as above; settings: 72 h
[22] = test system: normal primary NK cells, pool 1 (3 donors) (IL-2 2.5 ng/mL); test: as above; settings: 72 h
[23] = test system: NKL (IL-2 2.5 ng/mL); test: as above; settings: 72 h
[24] = test system: NK-YS (IL-2 2.5 ng/mL); test: as above; settings: 72 h
[25] = test system: normal primary NK cells, pool 3 (3 donors) (IL-2 2.5 ng/mL); test: as above; settings: 72 h
[26] = test system: normal primary NK cells, pool 1 (3 donors), resting (IL-2 0 ng/mL); test: as above; settings: 72 h
[27] = test system: KHYG-1 (IL-2 2.5 ng/mL); test: as above; settings: 72 h
[28] = test system: normal NK cells expanded with K562-aAPC; test: drug sensitivity score (DSS) (DSS units); higher = more sensitive; extreme values may be limits of the assay; settings: 72 h; IL-2 2.5 ng/mL
Experimental: as §1

Nc1ccccc1NC(=O)c1ccc(CNC(=O)OCc2cccnc2)cc1 [Entinostat] (max concentration tested 10000 nM)
percent inhibition of viability [%]
Settings | 1 nM | 10 nM | 100 nM | 1000 nM | 10000 nM
[1] | -3.4 | 0.57 | -3.46 | 17.8 | 99.5
[15] | 0.45 | 2.75 | -7.22 | 24.5 | 99.7
[16] | 2.59 | 0.46 | 1.95 | 10.1 | 99.8
[17] | -0.78 | 3.8 | 18.4 | 66.9 | 94
[18] | 9.17 | 8.55 | 15.6 | 65 | 95.2
[19] | -6.42 | -3.08 | -10.5 | 24.5 | 95.8
[20] | -11.3 | -2.61 | 7.67 | 73.5 | 96.4
[21] | 0.9 | -0.08 | 4.17 | 7.95 | 93.3
[22] | -1.3 | 1.71 | 4.63 | 34.1 | 97.6
[23] | -7.74 | -3.03 | 2.66 | 77.8 | 94
[24] | -7.17 | -13.1 | -7.95 | 20.5 | 95.3
[25] | -13.6 | -2.26 | -9.76 | 3.4 | 97.7
[26] | -8 | -8.09 | 10.2 | 61.1 | 92.3
[27] | -9.03 | -10.2 | -4.46 | 50.8 | 95.8

Settings | drug sensitivity score
[2] | 9.28
[3] | 7.18
[4] | 14.8
[5] | 14.4
[6] | 9.03
[7] | 14.8
[8] | 6.43
[9] | 9.83
[10] | 14.6
[11] | 8.53
[12] | 5.88
[13] | 13
[14] | 11.5
[28] | 8.42

C=C1C[C@@H]2[C@H](CC[C@]3(C)C(=O)CC[C@@H]23)[C@@]2(C)C=CC(=O)C=C12 [Exemestane] (max concentration tested 10000 nM)
percent inhibition of viability [%]
Settings | 1 nM | 10 nM | 100 nM | 1000 nM | 10000 nM
[1] | -3.29 | -0.41 | 3.42 | 12.7 | 35.6
[15] | -0.04 | 2.07 | -0.5 | 8.21 | 26.2
[16] | -4.22 | 2.93 | 0.3 | 7.31 | 12.9
[17] | 0.1 | 9.66 | 6.63 | 5.02 | 42
[18] | -1.73 | 3.81 | 3.19 | 27.1 | 40.9
[19] | -7.91 | -3.9 | 6.14 | 2.28 | 47.6
[20] | -2.32 | 9.27 | 5.72 | 8.66 | 44.8
[21] | -3.57 | 11.7 | -3.54 | 1.89 | 7.92
[22] | -3.16 | -4.6 | 2.49 | -8.32 | 47.6
[23] | -3.13 | 9.66 | -3.12 | 3.19 | 14.4
[24] | -2.57 | 3.99 | 3.16 | 2.81 | 18.9
[25] | -5.22 | -9.04 | 7.22 | 1.19 | 30.5
[26] | 3.47 | -11.3 | -6.56 | -1.56 | 75.8
[27] | -6.37 | 13.7 | -2.18 | 12.3 | 29.8

Settings | drug sensitivity score
[2] | 2.16
[3] | 0.35
[4] | 2.96
[5] | 5.29
[6] | 2.8
[7] | 3.74
[8] | 0
[9] | 1.99
[10] | 0.48
[11] | 0.88
[12] | 1.49
[13] | 4.06
[14] | 2.88
[28] | 3.07

Nc1nc(F)nc2c1ncn2[C@@H]1O[C@H](CO)[C@@H](O)[C@@H]1O [Fludarabine] (max concentration tested 10000 nM)
percent inhibition of viability [%]
Settings | 1 nM | 10 nM | 100 nM | 1000 nM | 10000 nM
[1] | -4.55 | -1.76 | -0.86 | 67.3 | 100
[15] | -6.18 | -6.69 | 2.47 | -9.31 | 74.8
[16] | -8.37 | 2.44 | -0.32 | 0.25 | 53.5
[17] | -10.9 | -7.43 | -11.6 | 10.9 | 97.9
[18] | 18.4 | 33.8 | 24.8 | 32.5 | 28
[19] | -15.8 | -12 | 5.13 | 47.7 | 93
[20] | -5.82 | -19.1 | -10.8 | 24.7 | 101
[21] | -2.12 | 0.54 | 0.43 | -2.19 | 4.14
[22] | 6.23 | -6.78 | 8.3 | 45.7 | 93.6
[23] | -18.8 | -16.5 | -2.27 | 56.9 | 100
[24] | -7.11 | -1.12 | -0.69 | 4.05 | 12.8
[25] | -13.2 | -7.62 | 3.81 | 29.6 | 90.2
[26] | -2.66 | -18.7 | 10.1 | 65.3 | 89.5
[27] | -3.8 | -1.74 | -3.07 | 5.53 | 82.9

Settings | drug sensitivity score
[2] | 3.52
[3] | 2.89
[4] | 7.22
[5] | 7.06
[6] | 10.8
[7] | 9.32
[8] | 0
[9] | 10.6
[10] | 12.3
[11] | 0.32
[12] | 9.07
[13] | 13.5
[14] | 5.42
[28] | 13.3
